{"source": "patent US20040024033A1", "about": "(priority 1998, published 2004)", "key": {"[1]": {"tested_on": "A549 non small cell lung tumors", "protocol": "3-10 million cells are implanted s.c. into the right axillary (lateral) region of outbred athymic (nu/nu) mice, and are allowed to grow until a tumor volume of approximately 100 mm^3 is established. Epothilone B is formulated in 1% DMSO in 5% glucose in distilled water (D5W), and administered i.v. either once only, once per week, 3 times per week, or 5 times per week. Positive controls are carried out with clinical formulations of TAXOL® diluted 6 fold with D5W and administered i.v. 3×/week.\nAntitumor activity is expressed as % T/C (comparing Δ tumor volumes for treatment group to vehicle control group) at the end of the experiment. Regressions are calculated using the formula: −(T/T0−1)×100% , where T is the tumor volume for the treatment group at the end of the experiment, and T0 is the tumor volume at the beginning of the experiment. Statistical significance is evaluated using a one-tailed Student's t-test.\nTreatments are started on day 16 post implantation (10 million cells/animal). Epothilone B is administered i.v. once at 6 mg/kg (day 16), once weekly at 4 mg/kg (days 16, 23, and 30), three times per week at 1.5 mg/kg (days 16, 18, 21, 23, 25, 28, 30, 32, and 35), or five times per week at 0.5 mg/kg (days 16-18, 21-25, 28-32, and 35-36). TAXOL® is administered i.v. three times per week at 20 mg/kg (days 16, 18, 21, 23, 25, 28, 30, 32, and 35) as split doses of 10 mg/kg given one hour apart. Vehicle control (1% DMSO/D5W) is administered i.v. three times per week (days 16, 18, 21, 23, 25, 28, 30, 32, and 35). All final data are recorded on day 37. A single asterisk (*) indicates p<0.05, and a double asterisk (**) indicates p<0.01, using a one-tailed Student's t-Test."}, "[2]": {"assay": "Determination of the single i.v. dose MTD in nude mice", "assay_type": "in vivo, female BALB/c nude mice", "conditions": "mean ± SD", "description": "(§1) For the MTD determination, female BALB/c nude mice or BALB/c mice (obtained from Novartis Animal Farm, Sisseln, Switzerland) are treated once intravenously with epothilone B (n=3 per dose group). The dosage is increased (2, 4, 6, 8, 10 and 12 mg/kg) and the mice are observed for the presentation of overt toxic effects for 10 days after drug treatment.\nEpothilone B is given as a single i.v. bolus dose at 2, 4, 6, 8, 10 or 12 mg/kg. Survival and body weights of the mice are monitored daily. Changes (A) in body weights are determined comparing the last measured body weight to that before treatment."}, "[3]": {"assay": "Determination of the single i.v. dose MTD in normal mice", "assay_type": "in vivo, normal female BALB/c mice", "conditions": "for Body Weight Δ: mean ± SD", "description": "as §1\nEpothilone B is given as a single i.v. bolus dose at 2, 4, 6, 8, 10 or 12 mg/kg. Survival and body weights of the mice are monitored daily. Changes (Δ) in body weights are determined comparing the last measured body weight to that before treatment."}, "[4]": {"tested_on": "human KB-8511 epidermoid carcinoma", "assay_type": "in vivo, female BALB/c nude mice", "description": "Female or male BALB/c nu/nu (nude) mice are kept under sterile conditions (10 to 12 mice per Type III cage) with free access to food and water. Mice weigh between 20 and 25 grams at the time of tumor implantation. Tumors are established by subcutaneous injection of cells (minimum 2×10^6 cells in 100 μl PBS or medium) in carrier mice (4-8 mice per cell line). The resulting tumors are serially passaged for a minimum of three consecutive transplantations prior to start of treatment. Tumor fragments (approx. 25 mg) are implanted s.c. into the left flank of animals with a 13-gauge trocar needle while the mice are exposed to Forene (Abbott, Switzerland) anesthesia.\nTumor growth and body weights are monitored once or twice weekly. All treatments are administered intravenously (i.v.) and are initiated when a mean tumor volume of approximately 100 to 250 mm^3 is attained, depending upon the tumor type. Tumor volumes are determined using the formula […] (see Cancer Chemother. Pharmacol. 24:148-154, [1989]). Treatments with epothilone B vary the dose and the frequency of administration. Comparator agents are administered according to previously determined optimal treatment regimens. In addition to presenting changes in tumor volumes over the course of treatment, antitumor activity is expressed as T/C% (mean increase of tumor volumes of treated animals divided by the mean increase of tumor volumes of control animals multiplied by 100). Tumor regression (%) represents the smallest mean tumor volume compared to the mean tumor volume at the start of treatment, according to the formula Regression (%)=(1−Vend/Vstart)×100 (Vend=final mean tumor volume, Vstart=mean tumor volume at the start of treatment. Any animals in which the tumor has reached a size exceeding approximately 1.5 to 2.5 cm^3 are sacrificed. Details can be found below.\nTumor fragments of approximately 25 mg are implanted into the left flank of each female nude mouse (n=8 per group). Treatments are started on day 13 after tumor transplantation. epothilone B is administered once at 4 mg/kg, i.v. on day 13, or once per week at 4, 2 or 1 mg/kg, i.v., (on days 13, […] and 27). TAXOL® is administered i.v. at 20 mg/kg/day, every second day for 5 treatments (days 13, 15, 17, 19 and 21). Antitumor activity is expressed as T/C% (mean increase of tumor volumes of treated animals divided by the mean increase of tumor volumes of control animals multiplied by 100). Tumor regression (%) represents the final mean tumor volume compared to the mean tumor volume at the start of treatment. Changes (Δ) in Tumor volumes represent the tumor volume on the last treatment day minus the tumor volume on the first treatment day. Statistical analyses on Δ tumor volumes uses Dunnett's test to compare treatment groups to controls. […]"}, "[5]": {"assay": "Two-week intravenous comparative toxicity study in mice", "assay_type": "in vivo, normal female BALB/c mice", "description": "In order to assess the sub-chronic intravenous toxicity of epothilone B, a non-GLP two-week i.v. toxicity study in non-tumor bearing, normal female BALB/c mice is conducted, involving analysis of mortality, clinical signs, body weight, food consumption, hematology, clinical biochemistry, urinalysis, and organ weights as well as macro and microscopic examinations. The study is based on two different dosing regimens of epothilone B of 3 mg/kg and 10 mg/kg, respectively, administered on days 1 and 8 (8 animals per group). Half of the animals are killed on day 15 (main group) and necropsy is performed. For the other half (recovery group) a recovery period of 5 weeks is allowed after administration of the second dose before sacrifice and subsequent necropsy on day 43."}, "[6]": {"conditions": "Experiment 1, 6 mg/kg single i.v. bolus"}, "[7]": {"conditions": "Experiment 1, 8 mg/kg single i.v. bolus"}, "[8]": {"conditions": "Experiment 1, 10 mg/kg single i.v. bolus"}, "[9]": {"conditions": "Experiment 1, 12 mg/kg single i.v. bolus"}, "[10]": {"conditions": "Experiment 2, 2 mg/kg single i.v. bolus"}, "[11]": {"conditions": "Experiment 2, 4 mg/kg single i.v. bolus"}, "[12]": {"conditions": "Experiment 2, 6 mg/kg single i.v. bolus"}, "[13]": {"conditions": "Experiment 2, 8 mg/kg single i.v. bolus"}, "[14]": {"conditions": "3 mg/kg i.v. on days 1 and 8, day 15"}, "[15]": {"conditions": "10 mg/kg i.v. on days 1 and 8, day 15"}}, "note": "Read-outs that look alike come from different tables or passages of the source.", "data": [{"smiles": "C/C(=C\\c1csc(C)n1)[C@@H]1C[C@@H]2O[C@]2(C)CCC[C@H](C)[C@H](O)[C@@H](C)C(=O)C(C)(C)[C@@H](O)CC(=O)O1", "note": "[epothilone B]", "values": [{"measurement": "body weight loss", "setting": "[1]; 0.5 mg/kg i.v. 5x/week", "value": 23, "unit": "%"}, {"measurement": "Dead/Total", "setting": "[1]; 1.5 mg/kg i.v. 3x/week", "value": "all animals have to be euthanatized in the first week of the experiment due to toxicity"}, {"measurement": "body weight loss", "setting": "[1]; 4 mg/kg i.v. 1x/week", "value": 13, "unit": "%"}, {"measurement": "% Regression", "setting": "[1]; 6 mg/kg i.v. once, day 37", "value": "none"}, {"measurement": "% T/C", "setting": "[1]; 6 mg/kg i.v. once, day 37", "value": 41, "unit": "%"}, {"measurement": "Dead/Total", "setting": "[1]; 6 mg/kg, i.v. once", "value": "0/8"}, {"measurement": "Body Weight Δ", "setting": "[2]; 2 mg/kg single i.v. bolus", "value": "1.0 ± 0.5", "unit": "g"}, {"measurement": "Body Weight Δ", "setting": "[2]; 4 mg/kg single i.v. bolus", "value": "-0.4 ± 0.6", "unit": "g"}, {"measurement": "Body Weight Δ", "setting": "[2]; 6 mg/kg single i.v. bolus", "value": "-1.0 ± 0.5", "unit": "g"}, {"measurement": "Body Weight Δ", "setting": "[2]; 8 mg/kg single i.v. bolus", "value": "-3.8 ± 2.7", "unit": "g"}, {"measurement": "Body Weight Δ", "setting": "[2]; 10 mg/kg single i.v. bolus", "value": "-5.6 ± 3.3", "unit": "g"}, {"measurement": "Body Weight Δ", "setting": "[2]; 12 mg/kg single i.v. bolus", "value": "-5.1 ± 0.6", "unit": "g"}, {"measurement": "Mortalities", "setting": "[3]; [6]", "value": "1/3"}, {"measurement": "Body Weight Δ", "setting": "[3]; [6]", "value": "-6.1 ± 0.9", "unit": "g"}, {"measurement": "Mortalities", "setting": "[3]; [7]", "value": "3/3"}, {"measurement": "Body Weight Δ", "setting": "[3]; [7]", "value": "-5.1 ± 3.2", "unit": "g"}, {"measurement": "Mortalities", "setting": "[3]; [8]", "value": "3/3"}, {"measurement": "Body Weight Δ", "setting": "[3]; [8]", "value": "-5.6 ± 0.6", "unit": "g"}, {"measurement": "Mortalities", "setting": "[3]; [9]", "value": "3/3"}, {"measurement": "Body Weight Δ", "setting": "[3]; [9]", "value": "-5.4 ± 2.9", "unit": "g"}, {"measurement": "Mortalities", "setting": "[3]; [10]", "value": "0/3"}, {"measurement": "Body Weight Δ", "setting": "[3]; [10]", "value": "2.3 ± 0.6", "unit": "g"}, {"measurement": "Mortalities", "setting": "[3]; [11]", "value": "0/3"}, {"measurement": "Body Weight Δ", "setting": "[3]; [11]", "value": "1.3 ± 0.6", "unit": "g"}, {"measurement": "Mortalities", "setting": "[3]; [12]", "value": "2/3"}, {"measurement": "Body Weight Δ", "setting": "[3]; [12]", "value": "-5.3 ± 0.6", "unit": "g"}, {"measurement": "Mortalities", "setting": "[3]; [13]", "value": "3/3"}, {"measurement": "Body Weight Δ", "setting": "[3]; [13]", "value": "-5.0 ± 1.0", "unit": "g"}, {"measurement": "mice with undetectable tumors at the end of the experiment", "setting": "[4]; 2 mg/kg/week", "value": "1/8"}, {"measurement": "% Body Weight Change", "setting": "[4]; 4 mg/kg, i.v. once per week", "value": "−5±7", "unit": "%"}, {"measurement": "T/C", "setting": "[4]; 4 mg/kg, i.v. once per week", "value": "Regres-"}, {"measurement": "mice with undetectable tumors at the end of the experiment", "setting": "[4]; 4 mg/kg/week", "value": "5/8"}, {"measurement": "Mortalities throughout the treatment period (days 1-14)", "setting": "[5]; 3 mg/kg i.v. on days 1 and 8", "value": "No mortalities"}, {"measurement": "Atrophy of the thymus (microscopic)", "setting": "[5]; [14]", "value": "moderate"}, {"measurement": "Hematology: leukocytes", "setting": "[5]; [14]", "value": "reduction in the number of leukocytes"}, {"measurement": "Sternal bone marrow, microscopic", "setting": "[5]; [14]", "value": "minimal to slight erythroid and myeloid atrophy"}, {"measurement": "Survival of the recovery group", "setting": "[5]; 3 mg/kg i.v. on days 1 and 8, to day 43", "value": "all animals of the recovery group survive until the end of the study"}, {"measurement": "Body weight", "setting": "[5]; 3 mg/kg i.v. on days 1 and 8, treatment period", "value": "body weight loss at the 3 mg/kg dose is only apparent in the second week"}, {"measurement": "Mortalities throughout the treatment period (days 1-14)", "setting": "[5]; 10 mg/kg i.v. on days 1 and 8", "value": "No mortalities"}, {"measurement": "Atrophy of the thymus (microscopic)", "setting": "[5]; [15]", "value": "marked"}, {"measurement": "Spleen, microscopic", "setting": "[5]; [15]", "value": "minimal lymphoid atrophy"}, {"measurement": "Sternal bone marrow, microscopic", "setting": "[5]; [15]", "value": "minimal to slight myeloid hypoplasia"}, {"measurement": "Hematology: leukocytes", "setting": "[5]; 10 mg/kg i.v. on days 1 and 8, day 15, effect more pronounced", "value": "reduction in the number of leukocytes"}, {"measurement": "Body weight", "setting": "[5]; 10 mg/kg i.v. on days 1 and 8, first and second week", "value": "Body weight loss is observed for all animals"}, {"measurement": "Intestinal mucosa (small and large intestine), microscopic", "setting": "[5]; both dose levels (3 and 10 mg/kg), day 15", "value": "Minimal single cell necrosis"}]}]}
